Patent publication US12441775B2, “BCL-W polypeptides and mimetics for treating or preventing chemotherapy-induced peripheral neuropathy and hearing loss” (Dana-Farber Cancer Institute, Inc., priority 2016, dated 2025)

Tests used:
E15 DRG sensory neurons = experiment: Apoptosis analysis (condensed/total nuclei) in cell body compartment; format: cell-based, rat; conditions: paclitaxel to either subcellular compartment
Method: Cell culture. Compartmented chamber (Campenot) cultures were prepared as described (see, e.g., Fenstermacher et al., Springer Protocols: Neuromethods, 103:105-124 (2015)), with modifications. Briefly, DRGs from embryonic day 15 (E15) rats of either sex were dissected and trypsinized. DRGs (1.2×10^5 cells) were plated in the center compartment of a Teflon divider (Camp10, Tyler Research; Campenot, 1982) affixed to a p35 culture dish coated with growth factor reduced Matrigel basement membrane (BD Biosciences) 1:45 in DMEM. Cultures were maintained in media consisting of Neurobasal (Invitrogen) with 2% B27 supplement (Invitrogen), 1% penicillin-streptomycin, 1% GlutaMAX (Life Technologies), 0.08% glucose, and 0.3 μM cytosine arabinoside (AraC) at 37° C., 7.5% CO2; BDNF+NGF (PeproTech) were added to the cell body compartment at a concentration of 10 ng/ml and to the axon compartment at a concentration of 100 ng/ml for 2d. On day 3, media was replaced and the AraC was omitted. On day 5, neurotrophins were removed from the cell body compartment and reduced to 1 ng/ml in the axon compartments for 3-5 days. […]
Axonal degeneration assay. […] Images of distal axon tips were obtained using a 40× air objective, and axonal degeneration was quantified as a degeneration index, as previously described (Cosker et al., Neuroscience, 33:5195-5207 (2013)). […]

calpain = experiment: Calpain protease activity luminescence assay; format: cell-based, rat; conditions: DRG neurons treated 48 hours with paclitaxel, normalized to DMSO
Method: Calpain protease activity luminescence assay. DRG neurons in mass cultures were treated with vehicle (0.1% DMSO for 48h), paclitaxel (30 nM, 600 nM, or 1.2 μM for 48 hours), or calcium chloride (3 mM for 24 hours). Cultures were harvested in 1× Passive Lysis Buffer (Promega). The resulting lysate was spun 10,000×g for 5 min at 4° C., and 50 μL supernatant was combined with 50 μL Calpain-Glo Reagent (Promega) in a 96 well plate. The plate was shaken briefly and incubated for 40 min in the dark; luminescence intensity was measured with a microplate reader and normalized to protein concentration.

Q: Which results are given for CC(=O)O[C@H]1C(=O)[C@@]2(C)[C@H]([C@H](OC(=O)c3ccccc3)[C@]3(O)C[C@H](OC(=O)[C@H](O)[C@@H](NC(=O)c4ccccc4)c4ccccc4)C(C)=C1C3(C)C)[C@]1(OC(C)=O)CO[C@@H]1C[C@@H]2O [paclitaxel]?
A: cell body apoptosis assessed by nuclear condensation (E15 DRG sensory neurons): did not induce cell body apoptosis; calpain activity (luminescence) (calpain): increased calpain activity in a dose-dependent manner
